Test results published in article PMC3517777, “Phase I study of TP300 in patients with advanced solid tumors with pharmacokinetic, pharmacogenetic and pharmacodynamic analyses” (BMC Cancer, 2012).

Experiments:
[1] = system: HCT-116 colorectal cancer cells; design: method as in PMID 19254843; conditions: HCT-116 colorectal cancer cells in vitro; cited from earlier work
[2] = system: Topo-1; design: method as in PMID 19495753; conditions: cited from earlier work
[3] = system: UGT1A1; conditions: human, in vivo
Experimental: (§1) Blood samples for pharmacogenomic analysis were collected and all samples anonymised for subsequent storage, assay and analysis. The impact on Cmax and AUC of genetic polymorphisms of CYP2D6, which is assumed to make some contribution to the hydroxylation of TP3076, but not TP3011, AOX1, which metabolises TP3076 to TP3011, and UGT1A1, which metabolises SN-38 to its glucuronide, but is not believed to influence TP300 metabolism were explored. The analysis was performed with the invader method or polymerase chain reaction (PCR)-invader method for single nucleotide polymorphisms (SNPs) of CYP2D6 and UGT1A1 *28 and with the long-PCR method for deletion of CYP2D6 and UGT1A1 gene. AOX1 SNPs were analysed by a direct sequencing method. Genomic DNAs were extracted from frozen peripheral blood of 31 subjects using an automated DNA extractor BioRobotMDx and commercial DNA purification kits (Qiagen). Quality and quantity of the DNAs were checked by the measurement of absorbencies at 260 nm and 280 nm. Primers were designed to amplify all the 35 exons of Aldehyde oxidese 1 gene (NCBI accession No. NM_001159) including some intronic flanking regions. The specificity of PCR conditions was confirmed by the agarose gel electrophoresis. Amplicons were prepared twice for every exons. The amplicons were subsequently treated with ExoSAP-IT (GE Healthcare) followed by the reactions with a cycle sequencing kit (BigDye Terminator v3.1, Applied Biosystems). The fragments obtained were purified using X-Terninator purification kit (Applied Biosystems) and analysed on an automated DNA sequencer (3730xl DNA Analyzer, Applied Biosystems). The resulted sequences were compared against the reference sequence using the variant reporter software (Applied Biosystems).

[4] = system: AOX1; conditions: human, in vivo
Experimental: as §1

[5] = Plasma and urine pharmacokinetics after TP300 infusion (LC-MS/MS, non-compartmental); type: in vivo, human; conditions: for fe (urinary excretion ratio): urine up to 48 hours, mean
Experimental: Venous blood (3 mL) was taken into sodium heparin tubes containing 30 μL of 46% citric acid, centrifuged 1500g at 4°C for 10 min and 1 mol/L hydrochloric acid was added (1:10) to plasma from each subject at 10 time points during cycle 1 (pre dose, then 1, 1.25, 1.5, 2, 3, 5, 8, 24, 48 hours after the start of administration) and stored at −70°C. Samples were processed by extraction of protein using addition of organic solvent containing internal standards and assayed by LC-MS/MS with a robust, sensitive and validated method for the simultaneous determination of a novel topoisomerase 1 inhibitor CH0793076 (TP3076), the prodrug CH4556300 (TP300), and the active metabolite CH0793011 (TP3011). All plasma had been acidified during collection to avoid the pH-based degradation of TP300 and to shift the equilibria of TP3076 and TP3011 between the lactone and carboxylate forms towards the lactone forms. After the plasma proteins were precipitated with methanol:acetonitrile:HCl 1M (50:50:1, v:v:v) containing stable isotopic internal standards, the analytes were trapped on an Xterra MS C18 column (10×2.1 mm i.d., 5 μm) and separated on a Gemini C18 column (50×2.0 mm i.d., 5 μm) using column-switching liquid chromatography. Electrospray ionization in the positive-ion mode and multiple reaction monitoring were used to quantify the analytes with transitions m/z 587.2>441.2 for TP300, 459.1>415.2 for 3076, and 475.1>361.1 for 3011. The inter- and intra-day precisions were below 12%, and the accuracy was between −16% and 16% at the lower limit of quantitation (LLOQ) and between −11% and 14% at the other quality controls. The LLOQs of TP300, TP3076, and TP3011 were 0.8, 0.04, and 0.04 ng/mL, respectively.
Pharmacokinetic parameters derived from plasma concentration-time data of TP3076 or TP3011 by non-compartmental methods using WinNonlin (version 5.1; Pharsight Corp), included maximal plasma concentration (Cmax) and time of Cmax (Tmax), apparent plasma elimination half-life (t1/2), and the area under the curve (AUC). The urinary excretion ratio (fe) of TP3076 and TP3011 was calculated from the urinary concentration and volume up to 48 hours after administration, and the administration dose. The linearity of Cmax and AUC was determined with linear regression, analysis of variance and power model analysis. The sum of the AUCs of TP3076 and TP3011 was plotted against percentage (%) fall in nadir neutrophil count to explore the relationship between exposure and myelosuppression as a measure of anti-proliferative effect and a sigmoid Emax model fitted to the data: […]

[6] = system: CYP2D6; design: species or system human; conditions: in vivo
Experimental: as §1, with “The specificity of PCR conditions was confirmed by the agarose gel electrophoresis. Amplicons were prepared twice for every exons. The amplicons were subsequently treated with ExoSAP-IT (GE Healthcare) followed by the reactions with a cycle sequencing kit (BigDye Terminator v3.1, Applied Biosystems).” left out, “The resulted sequences were compared against the reference sequence using the variant reporter software (Applied Biosystems).” left out

[7] = design: method as in PMID 10873073; conditions: irinotecan 350 mg/m^2, 3-weekly dosing regimen; cited from earlier work
[8] = TP300 1 mg/m^2 1-hour i.v. infusion, N=3
[9] = TP300 2 mg/m^2 1-hour i.v. infusion, N=3
[10] = TP300 4 mg/m^2 1-hour i.v. infusion, N=3
[11] = TP300 6 mg/m^2 1-hour i.v. infusion, N=3
[12] = TP300 8 mg/m^2 1-hour i.v. infusion, N=3
[13] = TP300 10 mg/m^2 1-hour i.v. infusion, N=12
[14] = TP300 12 mg/m^2 1-hour i.v. infusion, N=4

Structure (SMILES) | IC50 [1] | Topo-1 inhibition relative to SN38 [2] | difference in exposure (Cmax, AUC) among UGT1A1*28 genotypes [3] | difference of exposure (Cmax, AUC) among AOX1 (c3404A > G) genotypes [4] | fe (urinary excretion ratio) [5, 8] | fe (urinary excretion ratio) [5, 9] | fe (urinary excretion ratio) [5, 10] | fe (urinary excretion ratio) [5, 11] | fe (urinary excretion ratio) [5, 12] | fe (urinary excretion ratio) [5, 13] | fe (urinary excretion ratio) [5, 14] | Urinary excretion ratios ([5]; human, in vivo) | dose dependence of Cmax and AUC ([5]; human, in vivo) | Tmax ([5]; human, in vivo, Tmax) | Tmax ([5]; human, in vivo, iv, tmax) | Glucuronidated TP3076 (detection) ([5]; in vivo) | exposure in CYP2D6 extensive metabolisers [6] | half-life ([5]; human, in vivo, iv, t1/2) | AUC of SN-38 at which DLTs occur [7]
CCCCCN1C=Nc2cccc3nc4c(c1c23)Cn1c-4cc2c(c1=O)COC(=O)[C@]2(O)CC [TP3076] | sub-nanomolar range | equipotent | no apparent significant difference | no apparent significant difference | 2.45% | 2.87% | 1.31% | 1.78% | 1.71% | 3.09% | 6.33% | at most 6% | increased proportionately | 1 h | 1.26 h | not detected | slight reduction | – | –
CCCCCN1C(=O)Nc2cccc3nc4c(c1c23)Cn1c-4cc2c(c1=O)COC(=O)[C@]2(O)CC [TP3011] | sub-nanomolar range | equipotent | no apparent significant difference | no apparent significant difference | 0.792% | 0.739% | 0.796% | 0.593% | 0.594% | 1.10% | 1.99% | at most 6% | increased proportionately | 3 to 5 h | – | – | slight decrease | 6.92 h | –
CCc1c2c(nc3ccc(O)cc13)-c1cc3c(c(=O)n1C2)COC(=O)[C@]3(O)CC [SN-38] | – | – | – | – | – | – | – | – | – | – | – | – | – | – | – | – | – | – | 1.5 µM·h
